# In US12202907B2, “Nucleic acids encoding and methods of producing proteins comprising antibody chains” (Innate Pharma, priority 2018, dated 2025):
# Experiments:
# [1] = system: monocyte-derived DC (moDC); test: Activation of dendritic cells in the presence of ATP; type: cell-based, human; details: ATP 0.125 mM, 0.25 mM or 0.5 mM; I-394 at 10 μg/ml
# Protocol: Briefly, human monocytes were purified from human healthy blood and differentiated into MoDC in presence of GM-CSF and IL-4 during 6 days. […] In some cases, MoDC were preincubated for 1 hour in presence of CD39 inhibitor: […] (Tocris, 250 μM), CD73 inhibitor: APCP (Tocris 50 μM), anti-CD39 blocking antibody I-394 or BY40 (for BY40 see WO2009/095478), or anti-CD73 blocking antibodies. LPS (Invivogen, 10 ng/ml) was used as positive control. To assess resulting effect of ATP-mediated DC activation on CD4 T cells activation, ATP-activated DC were washed and then incubated with allogenic CD4 T cells (ratio 1 MoDC/4 T cells) for a mixed lymphocytes reaction (MLR) during 5 days. T cells activation and proliferation were analyzed through CD25 expression and Cell Trace Violet dilution by flow cytometry (FIG. 8).
# [2] = target: T1, human CD39 expressing CHO cells (CHO-huCD39) (Homo sapiens, UniProt P49961); test: Inhibition of the enzymatic activity of cellular CD39 in CHO-huCD39; type: cell-based; details: qualitative
# T1 construct: expressed in transfected cells; host or cells: CHO
# T1 sequence (P49961 1-510): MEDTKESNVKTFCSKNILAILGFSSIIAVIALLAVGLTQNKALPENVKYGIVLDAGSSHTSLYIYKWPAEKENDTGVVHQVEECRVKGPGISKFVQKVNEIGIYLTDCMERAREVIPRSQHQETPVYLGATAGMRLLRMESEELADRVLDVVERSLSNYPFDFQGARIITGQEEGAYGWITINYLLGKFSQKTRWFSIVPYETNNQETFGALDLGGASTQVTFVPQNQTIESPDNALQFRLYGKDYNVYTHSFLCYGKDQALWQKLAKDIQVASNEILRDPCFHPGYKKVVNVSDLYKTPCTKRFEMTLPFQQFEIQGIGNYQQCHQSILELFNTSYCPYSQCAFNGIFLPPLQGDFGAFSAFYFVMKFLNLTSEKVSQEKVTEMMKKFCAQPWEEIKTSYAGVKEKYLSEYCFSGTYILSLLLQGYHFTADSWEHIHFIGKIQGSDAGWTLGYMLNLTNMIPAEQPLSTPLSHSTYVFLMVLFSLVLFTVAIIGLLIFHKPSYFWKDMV
# Protocol: (§1) The inhibition of the CD39 enzymatic activity in CD39-expressing cells by antibodies was evaluated using Cell Titer GIo™ (Promega, reference G7571) that allows assessment of ATP hydrolysis through use of a reagent that generates a luminescent signal proportional to the amount of ATP present. The assay was thus designed to permit assessment of the inhibition of ATP hydrolyzed by CD39 in the cell culture supernatant. Briefly, 5×10^4 Ramos human lymphoma cells, 5×10^3 human CD39−, cynomolgus CD39—and mouse CD39− expressing CHO cells, were incubated 1 hour at 37° C. with anti-CD39 antibodies from 30 μg/ml to 5×10^−4 μg/ml. Cells were then incubated with 20 μM ATP for 1 additional hour at 37° C. Plates were centrifuged for 2 min at 400 g and 50 μl cell supernatant are transferred in a luminescence microplate (white wells). 50 μl CellTiter-Glo™ Reagent (CTG) was added to the supernatant and emitted light was quantified after a 5 min incubation in the dark using a Enspire™ luminometer. Anti-CD39 antibody efficacy was determined by comparing emitted light in presence of antibody with ATP alone (maximal light emission) and ATP together with cells (minimal light emission).
# [3] = target: T2, CD39 expressed by Ramos human lymphoma cells (Homo sapiens, UniProt P49961); test: Inhibition of the enzymatic activity of cellular CD39 in Ramos cells; type: cell-based
# T2 construct: cells that endogenously express CD39 at their surface; host or cells: Ramos
# T2 sequence (P49961 1-510): T1 sequence (P49961 1-510)
# Protocol: as §1
# [4] = target: T3, CHO cells expressing human CD39 (Homo sapiens, UniProt P49961); test: Antibody titration on CHO-huCD39 by flow cytometry; type: binding; details: qualitative
# T3 construct: expressed in transfected cells; host or cells: CHO
# T3 sequence (P49961 1-510): T1 sequence (P49961 1-510)
# Protocol: (§2) Antibody I-394 was tested in two repeated experiments for binding to CHO cells expressing human CD39, CHO cells expressing cynomolgus (Macaca fascicularis) CD39, CHO cells expressing murine CD39, and human Ramos lymphoma cells (ATCC™, reference CRL-1596). Cells were incubated with various concentration of unlabeled anti-CD39 antibody from 30 μg/ml to 5×10^−4 μg/ml, for 30 minutes at 4° C. After washes, cells were incubated with Goat anti-mouse H+L labeled secondary antibody for 30 min at 4° C.
# [5] = system: CHO cells expressing cynomolgus (Macaca fascicularis) CD39; test: Antibody titration on CHO-cyCD39 by flow cytometry; type: binding; details: qualitative
# Protocol: as §2
# [6] = target: T4, CD39 (Homo sapiens, UniProt P49961); test: ELISA titration on huCD39 (vascular isoform); type: binding; design: made in house
# T4 sequence (P49961 1-510): T1 sequence (P49961 1-510)
# Protocol: Antibody I-394 was tested for binding to recombinant human CD39 isoforms (Rec-huCD39 isoforms) having amino acid sequences shown below were coated in 96-well plate in PBS 1X at 500 ng/ml or 1 μg/ml at 4° C. overnight. Wells were washed in TBS Tween® 20 (polysorbate 20), and further saturated 2H at RT in TBS Blocking buffer. Dose range concentration of primary antibody was incubated in TBS blocking buffer for 2 h at RT. Wells were washed in TBS Tween® 20 (polysorbate 20). […] Optical density was measured on Enspire™ at OD=450.
# [7] = system: CD4 or CD8 T cells; test: T cell proliferation assay in the presence of added ATP; type: cell-based, human; details: for increase in potency of anti-CD73 antibodies: CD4 T cell proliferation
# Protocol: Peripheral blood from healthy donors was obtained from EFS, and mononuclear cells were isolated on a Ficoll™ gradient. Lymphocytes were further enriched on a 52% Percoll™ gradient by collection of the cell pellets and stained with a Cell Trace dye (Thermofisher) following the TDS provided by the manufacturer. […] to 1×10^5 of stained cells were distributed in 96 round-bottom plates, incubated for 1 hour at 37° C. with anti-huCD73 antibodies (antibody 6E1 described in WO2016/131950) and/or anti-huCD39 Abs (I-394 described herein) and activated for 3 to 5 days by addition of anti-CD3/anti-CD28-coated beads (bead:cell=1:4; Life Technologies). Inhibition of T cell proliferation was achieved by addition of ATP (200 μM). T cell proliferation and ability of Abs to block immune suppressive effect of AMP were assessed by flow cytometry by quantifying the dye dilution in the proliferating T cell subset.
# Percentage of proliferating T cells vs. anti-CD73 Ab concentration is plotted in graphs using GraphPad Prism™ software.
substance,measurement,setting,value
"I-394: anti-CD39 antibody, VH SEQ ID NO: 6, VL SEQ ID NO: 7, human IgG1 Fc with L234A/L235E/G237A/A330S/P331S",ATP-induced moDC activation (HLA-DR or CD83 expression),[1],permitted moDC activation
same,blocking CD39 enzymatic activity in CHO-huCD39,[2],blocks CD39 enzymatic activity
same,"inhibition maximum, cellular CD39",[3]; Ramos cells,81.6%
same,potency at blocking CD39 enzymatic activity relative to other antibodies,[3]; Ramos cells,greater potency compared to all other antibodies tested
same,blocking CD39 enzymatic activity in tumor (Ramos) cells,[3]; qualitative,highly potent at blocking CD39 enzymatic activity
same,binding to cells expressing human CD39 (CHO-huCD39),[4],bound
same,binding to cells expressing cynomolgus CD39 (CHO-cyCD39),[5],bound
same,binding to CD39 in ELISA,[6],bound to the CD39
same,potentiation of anti-CD73 antibodies in restoring CD4 or CD8 T cell proliferation,"[7]; ATP 200 μM, combination with anti-CD73 antibody 6E1",strongly potentiation the effect of anti-CD73 antibodies in restoring CD4 or CD8 T cell proliferation
same,increase in potency of anti-CD73 antibodies,[7]; anti-CD39 at 0.01 μg/ml,approximately 1 log
same,increase in potency of anti-CD73 antibodies,[7]; anti-CD39 at 0.1 μg/ml,approximately 4 log
same,"enhancement of CD4 or CD8 T cell proliferation, alone without anti-CD73","[7]; concentrations of 0.1 μg/ml and 1 μg/ml, ATP 200 μM",remarkable enhancement of CD4 or CD8 T cell proliferation
